Measurements from ChEMBL document CHEMBL4513161, “CO-ADD screening of MMV (CH) - Pandemic Response Box” (2021).
Converted amounts (≈) assume the structure as drawn. Structures can show the parent of a compound that is named as a salt.

Legend:
[1] = system: HEK293; experiment: cells; assay type: functional, Homo sapiens, ATCC CRL1573; conditions: Homo sapiens, ATCC CRL1573, HEK293; ASSAY_TEST Inhibition of Cell Viability; detection method Resazurin; Fluorescence (ex560/em590); MEDIA DMEM with 10% FBS; plate type 384well; TC; CORNING #3712; time 18 hr; read-out: CC50
[2] = system: Pseudomonas aeruginosa; experiment: Antibacterial activity against Pseudomonas aeruginosa PAO397 [PAO1 d(mexAB-oprM) d(mexCD-oprJ) d(mexEF-oprN) d(mexJKL) d(mexXY) d(opmH)] (CO-ADD:GN_211); MIC in CAMBH media using NBS plates, by OD(600); assay type: functional; conditions: ASSAY_TEST Inhibition of Bacterial Growth, detection method Absorption (OD600), MEDIA CAMHB, plate type 384well, CORNING #3640, time 18 hr
[3] = system: Cryptococcus neoformans
Description: Antifungal activity against Cryptococcus neoformans H99 ATCC 208821 (CO-ADD:FG_002); MIC in YNB media using NBS plates, by Resazurin OD(600-570)

[4] = system: Staphylococcus aureus; experiment: microbe, parasite or virus in culture; conditions: ATCC 43300, 18 h, ASSAY_TEST Inhibition of Bacterial Growth, detection method Absorption (OD600), MEDIA CAMHB, plate type 384well, NBS, CORNING #3640
Description: Antibacterial activity against Staphylococcus aureus MRSA ATCC 43300 (CO-ADD:GP_020); MIC in CAMBH media, using NBS plates, by OD(600)

[5] = system: Escherichia coli; experiment: microbe, parasite or virus in culture; conditions: ATCC 25922, 18 h, ASSAY_TEST Inhibition of Bacterial Growth, detection method Absorption (OD600), MEDIA CAMHB, plate type 384well, NBS, CORNING #3640
Description: Antibacterial activity against Escherichia coli ATCC 25922 (CO-ADD:GN_001); MIC in CAMBH media using NBS plates, by OD(600)

[6] = system: Klebsiella pneumoniae; experiment: microbe, parasite or virus in culture; conditions: ATCC 700603, 18 h, ASSAY_TEST Inhibition of Bacterial Growth, detection method Absorption (OD600), MEDIA CAMHB, plate type 384well, NBS, CORNING #3640
Description: Antibacterial activity against Klebsiella pneumoniae MDR ATCC 70063 (CO-ADD:GN_003); MIC in CAMBH media using NBS plates, by OD(600)

[7] = system: Pseudomonas aeruginosa; experiment: microbe, parasite or virus in culture; conditions: ATCC 27853, 18 h, ASSAY_TEST Inhibition of Bacterial Growth, detection method Absorption (OD600), MEDIA CAMHB, plate type 384well, NBS, CORNING #3640
Description: Antibacterial activity against Pseudomonas aeruginosa ATCC 27853 (CO-ADD:GN_042); MIC in CAMBH media using NBS plates, by OD(600)

[8] = system: Acinetobacter baumannii; experiment: microbe, parasite or virus in culture; conditions: ATCC 19606, 18 h, ASSAY_TEST Inhibition of Bacterial Growth, detection method Absorption (OD600), MEDIA CAMHB, plate type 384well, NBS, CORNING #3640
Description: Antibacterial activity against Acinetobacter baumannii ATCC 19606 (CO-ADD:GN_034); MIC in CAMBH media using NBS plates, by OD600

[9] = system: Candida albicans; experiment: microbe, parasite or virus in culture; conditions: ATCC 90028, ASSAY_TEST Inhibition of Fungal Growth, detection method Absorption (OD530), plate type 384well, NBS, CORNING #3640
Description: Antifungal activity against Candida albicans ATCC 90028 (CO-ADD:FG_001); MIC in YNB media using NBS plates, by OD630

SMILES | CC50 [1] | MIC [2] | MIC [3] | MIC [4] | MIC [5] | MIC [6] | MIC [7] | MIC [8] | MIC [9]
CCC[C@@H]1C[C@@H](C(=O)N[C@@H]([C@H]2O[C@H](SC)[C@H](O)[C@@H](O)[C@H]2O)[C@H](C)Cl)N(C)C1 [CLINDAMYCIN HYDROCHLORIDE] | > 20 µM | 20 µM | > 20 µM | > 20 µM | > 20 µM | > 20 µM | > 20 µM | > 20 µM | > 20 µM
Cc1onc(-c2ccccc2Cl)c1C(=O)N[C@@H]1C(=O)N2[C@@H]1SC(C)(C)[C@@H]2C(=O)O [CLOXACILLIN] | > 20 µM | > 20 µM | > 20 µM | 1.25 µM (≈ 0.545 µg/mL) | > 20 µM | > 20 µM | > 20 µM | > 20 µM | > 20 µM
COc1ccccc1CN[C@H]1C2CCN(CC2)[C@H]1C(c1ccccc1)c1ccccc1 [CP-96345] | > 20 µM | > 20 µM | > 20 µM | > 20 µM | > 20 µM | > 20 µM | > 20 µM | > 20 µM | > 20 µM
O=c1cc(NCCCN[C@@H]2CCOc3c(Br)cc(Br)cc32)[nH]c2ccsc12 [CRS-3123] | > 20 µM | 20 µM (≈ 10.3 µg/mL) | > 20 µM | 0.312 µM (≈ 0.16 µg/mL) | > 20 µM | > 20 µM | > 20 µM | > 20 µM | > 20 µM
O=C(NO)C1(CS(=O)(=O)c2ccc(Oc3ccc(Cl)cc3)cc2)CCOCC1 [CTS-1027] | > 20 µM | 20 µM (≈ 8.52 µg/mL) | > 20 µM | > 20 µM | > 20 µM | > 20 µM | > 20 µM | > 20 µM | > 20 µM
O=C(O)c1ccc(-n2nc(-c3ccccc3O)nc2-c2ccccc2O)cc1 [DEFERASIROX] | > 20 µM | > 20 µM | > 20 µM | > 20 µM | > 20 µM | > 20 µM | > 20 µM | > 20 µM | > 20 µM
COc1cc2c(O)c3c(c(-c4ccc5c(c4)OCO5)c2cc1OC)C(=O)OC3 [DIPHYLLIN] | > 20 µM | > 20 µM | > 20 µM | > 20 µM | > 20 µM | > 20 µM | > 20 µM | > 20 µM | > 20 µM
CC(C)c1cc2c(cc1S(=O)(=O)O)[C@@]1(C)CCC[C@@](C)(C(=O)O)[C@@H]1CC2 [ECABET] | > 20 µM | > 20 µM | > 20 µM | > 20 µM | > 20 µM | > 20 µM | > 20 µM | > 20 µM | > 20 µM
CC[C@H]1OC(=O)[C@H](C)[C@@H](O[C@H]2C[C@@](C)(OC)[C@@H](O)[C@H](C)O2)[C@H](C)[C@@H](O[C@@H]2O[C@H](C)C[C@H](N(C)C)[C@H]2O)[C@](C)(O)C[C@@H](C)C(=O)[C@H](C)[C@@H](O)[C@]1(C)O [ERYTHROMYCIN] | > 20 µM | 20 µM (≈ 14.7 µg/mL) | > 20 µM | > 20 µM | > 20 µM | > 20 µM | 20 µM (≈ 14.7 µg/mL) | > 20 µM | > 20 µM
CC[C@@H](CO)NCCN[C@@H](CC)CO [ETHAMBUTOL] | > 20 µM | > 20 µM | > 20 µM | > 20 µM | > 20 µM | > 20 µM | > 20 µM | > 20 µM | > 20 µM
O=C1[C@H](CC[C@H](O)c2ccc(F)cc2)[C@@H](c2ccc(O)cc2)N1c1ccc(F)cc1 [EZETIMIBE] | > 20 µM | > 20 µM | > 20 µM | > 20 µM | > 20 µM | > 20 µM | > 20 µM | > 20 µM | > 20 µM
COC(=O)Nc1nc2cc(Sc3ccccc3)ccc2[nH]1 [FENBENDAZOLE] | 8.24 µM | > 20 µM | 0.312 µM (≈ 0.0935 µg/mL) | > 20 µM | > 20 µM | > 20 µM | > 20 µM | > 20 µM | > 20 µM
CC1=C(/C=C/C(C)=C/C=C/C(C)=C/C(=O)Nc2ccc(O)cc2)C(C)(C)CCC1 [FENRETINIDE] | > 20 µM | > 20 µM | > 20 µM | > 20 µM | > 20 µM | > 20 µM | > 20 µM | > 20 µM | > 20 µM
Nc1nc2c(ncn2/C=C2/CC2(CO)CO)c(=O)[nH]1 [FILOCICLOVIR] | > 20 µM | > 20 µM | > 20 µM | > 20 µM | > 20 µM | > 20 µM | > 20 µM | > 20 µM | > 20 µM
CC(C)Oc1cccc(NC(=O)c2ccccc2C(F)(F)F)c1 [FLUTOLANIL] | > 20 µM | > 20 µM | > 20 µM | > 20 µM | > 20 µM | > 20 µM | > 20 µM | > 20 µM | > 20 µM
CCCCc1ccc(C(=O)O)nc1 [FUSARIC ACID] | > 20 µM | > 20 µM | > 20 µM | > 20 µM | > 20 µM | > 20 µM | > 20 µM | > 20 µM | > 20 µM
CC(=O)O[C@H]1C[C@@]2(C)[C@@H](C[C@@H](O)[C@H]3[C@@]4(C)CC[C@@H](O)[C@@H](C)[C@@H]4CC[C@@]32C)/C1=C(\CCC=C(C)C)C(=O)O [FUSIDIC ACID] | > 20 µM | > 20 µM | > 20 µM | 0.312 µM (≈ 0.161 µg/mL) | > 20 µM | > 20 µM | > 20 µM | > 20 µM | > 20 µM
Nc1nc2c(ncn2COC(CO)CO)c(=O)[nH]1 [GANCICLOVIR] | > 20 µM | > 20 µM | > 20 µM | > 20 µM | > 20 µM | > 20 µM | > 20 µM | > 20 µM | > 20 µM
N[C@H](CCC(=O)N[C@@H](Cc1c[nH]c2ccccc12)C(=O)O)C(=O)O [GOLOTIMOD] | > 20 µM | > 20 µM | > 20 µM | > 20 µM | > 20 µM | > 20 µM | > 20 µM | > 20 µM | > 20 µM
CN1CCN(c2ccc3[nH]c(-c4ccc5[nH]c(-c6ccc(O)cc6)nc5c4)nc3c2)CC1 [HOECHST 33258] | > 20 µM | 20 µM (≈ 8.49 µg/mL) | 2.5 µM (≈ 1.06 µg/mL) | > 20 µM | > 20 µM | > 20 µM | > 20 µM | > 20 µM | 5 µM (≈ 2.12 µg/mL)
Cc1ccc(NC(=O)c2ccc(CN3CCN(C)CC3)cc2)cc1Nc1nccc(-c2cccnc2)n1 [IMATINIB] | > 20 µM | > 20 µM | > 20 µM | > 20 µM | > 20 µM | > 20 µM | > 20 µM | > 20 µM | > 20 µM
NC(=O)c1ccc(I)c([N+](=O)[O-])c1 [INIPARIB] | > 20 µM | > 20 µM | > 20 µM | > 20 µM | > 20 µM | > 20 µM | > 20 µM | > 20 µM | > 20 µM
CNCC(=O)OCc1cccnc1N(C)C(=O)OC(C)[n+]1cnn(C[C@](O)(c2cc(F)ccc2F)[C@@H](C)c2nc(-c3ccc(C#N)cc3)cs2)c1 (some centres undefined) [ISAVUCONAZONIUM] | > 20 µM | > 20 µM | 2.5 µM | > 20 µM | > 20 µM | > 20 µM | > 20 µM | > 20 µM | ≤ 0.156 µM
NNC(=O)c1ccncc1 [ISONIAZID] | > 20 µM | > 20 µM | > 20 µM | > 20 µM | > 20 µM | > 20 µM | > 20 µM | > 20 µM | > 20 µM
Cc1c(OCC(F)(F)F)ccnc1C[S+]([O-])c1nc2ccccc2[nH]1 (centres undefined) [LANSOPRAZOLE] | > 20 µM | > 20 µM | > 20 µM | > 20 µM | > 20 µM | > 20 µM | > 20 µM | > 20 µM | > 20 µM
Cc1oncc1C(=O)Nc1ccc(C(F)(F)F)cc1 [LEFLUNOMIDE] | > 20 µM | > 20 µM | > 20 µM | > 20 µM | > 20 µM | > 20 µM | > 20 µM | > 20 µM | > 20 µM
